Several values for one entry are separate records, joined by “and”; a condition that tells them apart may be missing. Identical values can stand only once. Like-named read-outs stand apart in the source and are kept apart here.
Assays:
COX-2 [1] = biological target: T1, COX-2 (Homo sapiens, UniProt P35354); conditions: cited from earlier work
T1 sequence (P35354 18-604): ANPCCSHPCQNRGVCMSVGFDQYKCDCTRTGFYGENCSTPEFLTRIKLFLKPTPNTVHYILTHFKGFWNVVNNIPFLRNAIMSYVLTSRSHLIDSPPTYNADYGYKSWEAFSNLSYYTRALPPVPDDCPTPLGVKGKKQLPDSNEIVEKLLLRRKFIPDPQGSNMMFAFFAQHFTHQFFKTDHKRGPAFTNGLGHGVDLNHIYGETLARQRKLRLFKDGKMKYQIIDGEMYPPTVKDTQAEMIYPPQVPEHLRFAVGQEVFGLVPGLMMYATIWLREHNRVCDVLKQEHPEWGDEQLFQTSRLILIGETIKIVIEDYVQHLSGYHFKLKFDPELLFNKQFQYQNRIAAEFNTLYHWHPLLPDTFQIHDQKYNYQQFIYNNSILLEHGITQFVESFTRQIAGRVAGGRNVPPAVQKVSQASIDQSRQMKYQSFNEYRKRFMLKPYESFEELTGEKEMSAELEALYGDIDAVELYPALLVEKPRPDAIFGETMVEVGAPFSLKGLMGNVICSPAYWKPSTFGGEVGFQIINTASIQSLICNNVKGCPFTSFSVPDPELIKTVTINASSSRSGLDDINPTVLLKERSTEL

[2] = system: CD3+ T cells from HIV infected patients; assay: proliferation of HIV patient CD3+ T cells with cAMP antagonist added in vitro; type: cell-based, human
From the text: Bars show mean values±SD from triplicate determinations.
8-CPT-cAMP was from Sigma (St. Louis, Mo.).

[3] = system: CD3+ T cells from MAIDS and control mice; assay: TCR/CD3 stimulated proliferation of isolated T cells, [3H]-thymidine incorporation; type: cell-based, mouse
Method: TCR/CD3 stimulated T cell proliferation was assessed with isolated T cells from MAIDS mice (A) and uninfected control mice (B). The effect of increasing concentrations of cAMP agonist (8-CPT-cAMP) on TCR/CD3 stimulated proliferation of CD3+ T cells isolated from MAIDS (open circles, dotted line) and control mice (filled circles and solid line) was examined separately in the same experiments (C). Mean values of triplicate determinations±SD are shown. See Table 4 for summarised data (n=11). Note: Scaling differs in A and B, whereas in C the TCR/CD3 induced proliferation in the absence of cAMP agonist is normalized to 100% for both MAIDS and control T cells;
Activation was achieved by subsequent addition of monodisperse magnetic beads coated with sheep anti-mouse IgG (Dynal, cat. no. 110.02) at a cell:bead ratio of 1:1 followed by addition of anti-CD3 (clone 2C11) at a final dilution of 4 μg/ml for the experiments shown. […] 8-CPT-cAMP was from Sigma (St. Louis, Mo.) and Sp- and Rp-8-Br-cAMPS were from BioLog Life Science Company (Bremen, Germany) and were all dissolved to concentrations of 4 to 10 mM in PBS and concentrations calculated using the extinction coefficients given by the manufacturer.

[4] = system: lymph node mononuclear cells from MAIDS and control mice; assay: anti-CD3 induced T cell proliferation in mixed unsorted lymph node cells, compound added in vitro; type: cell-based, mouse
Method: T cell activation was accomplished by cross-ligation of anti-CD3 (mAb 2C11; 4 μg/ml). […] Cells were cultured for 72 h during which [^3H] -thymidine was included for the last 4 h;
T cell activation was accomplished by cross-ligation of anti-CD3 (mAb 2C11; 4 μg/ml). […] Cells were cultured for 72 h during which [^3H ]-thymidine was included for the last 4 h;
The optimal concentration of antibody was titrated carefully in the initial setup and parallel experiments at several different dilutions of antibody was always performed. Proliferation was analyzed by incubating cells for 72 hours during which [^3H]-thymidine (0.4 μCi) was included for the last 4 hours and collected with a cell harvester (Skatron, Sterling, Va., USA) onto glass fiber filters. Incorporated precursor was counted in a scintillation analyzer (Tri-Carb, Packard, Meriden, Conn., USA). cAMP analogs, when used, were added 30 min prior to activation by addition of anti-CD3 antibodies.

MAIDS mice [5] = assay: in vivo treatment of MAIDS mice, anti-CD3 induced T cell proliferation assessed in lymph node cells; set-up: species or system mouse; conditions: for increase of T cell responses to anti-CD3 versus untreated mice: intraperitoneal in intralipid, 18 to 20 days, rofecoxib 3, celecoxib 20 mg/kg/day
Method: Subsequently, T cell proliferative responses were assessed in vitro in a mixed population of unsorted lymph node mononuclear cells from treated and untreated animals by [^3H]-thymidine incorporation in the absence (columns A) and presence of Rp-8-Br-cAMPS (0.5 or 1.0 mM, columns B and C, respectively). T cell activation was accomplished in all samples by cross-ligation of anti-CD3 (mAb 2C11; 4 μg/ml). Control represents T cell proliferation in uninfected mice. Mean values from triplicate determinations are shown. Cells were cultured for 72 h during which [^3H]-thymidine was included for the last 4 hours;
Subsequently, T cell proliferative responses were assessed in vitro as described for FIG. 16 but without Rp-Br-cAMPs. Control represents T cell proliferation in uninfected mice. Mean values from triplicate determinations are shown (black circles) along with 25 to 75% percentile (boxed areas) and median (line in box). Bars represent range; and
Mean values±standard error of the mean (s.e.m.) from each group are shown. […] Statistics were analysed by Mann-Whitney U test for comparison of two groups of animals and with Wilcoxon Matched Pairs Test for comparison of the same group with two different treatments.
MAIDS mice normally develop an immunoproliferation syndrome with enlarged lymph nodes and spleen.
Parenteral administration was accomplished by intraperitoneally injecting Cox-2 inhibitors formulated in intralipid.

MAIDS mice [6] = assay: in vivo treatment of MAIDS mice, lymphoproliferation (spleen and lymph node weight); set-up: species or system mouse; conditions: MAIDS mice 17 weeks post-infection, per os 7 days, 3 mg/kg/day
COX-2 [7] = biological target: T1, COX-2; conditions: cited from earlier work; for IC50: recombinant human PGH synthesis, Laneuvill et al. 1994, read-out: COX-2 IC50; for COX-2 selectivity COX-1/COX-2: ratio of IC50, recombinant human enzymes
COX-1 [8] = biological target: COX-1 (Homo sapiens, UniProt P23219); conditions: recombinant human PGH synthesis; Laneuvill et al. 1994; cited from earlier work
COX-1 [9] = biological target: COX-1 (Cavia porcellus, UniProt H0V9X9); conditions: read-out: COX-1 IC50; guinea pig macrophage model; Engelhart et al. 1995; cited from earlier work
COX-2 [10] = biological target: T2, COX-2 (Cavia porcellus, UniProt P70682); conditions: guinea pig macrophage model; Engelhart et al. 1995; cited from earlier work
T2 construct: NSAID's in guinea pig macrophage model; endogenous in cells; host or cells: guinea pig macrophages
T2 sequence (P70682 18-604): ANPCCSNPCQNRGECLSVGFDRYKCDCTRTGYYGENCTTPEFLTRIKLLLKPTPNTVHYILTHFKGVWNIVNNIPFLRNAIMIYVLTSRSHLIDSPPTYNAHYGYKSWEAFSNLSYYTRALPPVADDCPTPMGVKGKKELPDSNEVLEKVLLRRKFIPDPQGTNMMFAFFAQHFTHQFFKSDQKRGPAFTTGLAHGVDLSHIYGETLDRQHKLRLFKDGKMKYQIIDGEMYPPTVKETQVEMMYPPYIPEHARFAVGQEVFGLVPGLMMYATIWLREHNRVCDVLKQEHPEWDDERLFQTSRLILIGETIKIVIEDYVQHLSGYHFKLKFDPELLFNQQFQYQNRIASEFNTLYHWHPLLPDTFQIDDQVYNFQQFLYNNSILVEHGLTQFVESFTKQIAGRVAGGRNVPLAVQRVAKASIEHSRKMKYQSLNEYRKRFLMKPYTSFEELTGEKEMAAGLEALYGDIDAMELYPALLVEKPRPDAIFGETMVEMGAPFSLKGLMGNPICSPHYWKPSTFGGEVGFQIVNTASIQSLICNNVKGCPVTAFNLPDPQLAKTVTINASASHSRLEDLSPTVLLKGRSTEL

Chain of COX-1 (Homo sapiens, UniProt P23219) (P23219 24-599): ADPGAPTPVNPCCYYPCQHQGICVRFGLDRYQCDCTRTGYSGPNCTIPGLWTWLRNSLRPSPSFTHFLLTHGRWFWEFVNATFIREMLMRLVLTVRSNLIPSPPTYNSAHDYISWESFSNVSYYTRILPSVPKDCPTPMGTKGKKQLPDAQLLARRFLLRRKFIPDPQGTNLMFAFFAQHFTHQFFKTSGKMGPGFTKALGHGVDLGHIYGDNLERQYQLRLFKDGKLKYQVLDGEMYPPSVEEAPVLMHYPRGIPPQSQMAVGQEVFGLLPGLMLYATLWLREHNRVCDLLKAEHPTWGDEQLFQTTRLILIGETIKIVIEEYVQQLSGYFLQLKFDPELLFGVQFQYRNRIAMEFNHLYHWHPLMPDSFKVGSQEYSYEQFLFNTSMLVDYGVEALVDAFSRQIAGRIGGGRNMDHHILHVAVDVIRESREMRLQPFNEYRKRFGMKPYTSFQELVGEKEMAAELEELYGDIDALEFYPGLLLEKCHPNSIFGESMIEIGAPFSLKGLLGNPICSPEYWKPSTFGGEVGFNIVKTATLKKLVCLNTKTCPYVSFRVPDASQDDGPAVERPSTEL
Chain of COX-1 (Cavia porcellus, UniProt H0V9X9) (H0V9X9 entry or part of it): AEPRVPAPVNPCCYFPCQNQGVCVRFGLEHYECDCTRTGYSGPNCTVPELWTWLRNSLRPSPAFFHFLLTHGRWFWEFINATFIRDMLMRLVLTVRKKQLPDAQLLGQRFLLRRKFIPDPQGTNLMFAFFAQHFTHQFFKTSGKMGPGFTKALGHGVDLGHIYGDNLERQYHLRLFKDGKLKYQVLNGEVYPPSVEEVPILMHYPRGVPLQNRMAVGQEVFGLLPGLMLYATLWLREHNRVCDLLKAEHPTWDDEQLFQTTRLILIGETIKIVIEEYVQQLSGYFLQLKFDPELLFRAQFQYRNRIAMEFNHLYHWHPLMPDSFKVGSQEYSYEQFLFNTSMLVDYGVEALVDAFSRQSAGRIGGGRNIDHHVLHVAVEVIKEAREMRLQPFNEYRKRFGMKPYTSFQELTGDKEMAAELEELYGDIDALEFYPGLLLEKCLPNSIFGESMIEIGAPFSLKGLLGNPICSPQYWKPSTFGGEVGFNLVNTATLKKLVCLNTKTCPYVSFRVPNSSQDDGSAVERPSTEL

## CS(=O)(=O)Nc1ccc([N+](=O)[O-])cc1Oc1ccccc1 [nimesulide]
COX-2 [1]
  Ratio COX-2/WHMA-COX-1 at IC80: 0.17

## Nc1ncnc2c1nc(Br)n2C1OC2COP(O)(=S)OC2C1O (centres unmarked) [Rp-8-Br-cAMPS, Rp-8-Bromo-cAMP-phosphorothioate]
[2]; patient 2, 1 mM
  effect on proliferation by antagonist in vitro: no effect
[2]; patients 1 and 3, all time points, 1 mM
  increase in proliferation by antagonist in vitro: approx. 2 fold
[3]; MAIDS T cells, higher concentrations, FIG. 5A
  increase in TCR/CD3-induced proliferation: more than 4 fold
[3]; MAIDS mice, median, n = 11
  Increase in proliferation by Rp-8-Br-cAMPS: 2.2 fold increase
[3]; control T cells, FIG. 5B
  effect on TCR/CD3-induced proliferation: no stimulation was observed
[3]; control mice, median, n = 6
  Increase in proliferation by Rp-8-Br-cAMPS: 1.1 fold increase
[3]; individual MAIDS mice 1-11, anti-CD3 induced proliferation
  Increase in proliferation by Rp-8-Br-cAMPS: 14 fold increase and 37 fold increase (3×) and 10 fold increase and 19 fold increase (2×) and 22 fold increase and 42 fold increase and 40 fold increase and 24 fold increase
[4]; MAIDS mice that received PBS in vivo, 0.5 mM
  effect on anti-CD3 stimulated mixed lymph node cultures: increased immune responses

## Cc1ccc(-c2cc(C(F)(F)F)nn2-c2ccc(S(N)(=O)=O)cc2)cc1 [celecoxib, 4-(5-(4-methylphenyl)-3-(trifluoromethyl)-1H-pyrazol-1-yl)-benzenesulfonamide]
[4]; Mus musculus, T-cell, read-out: concentration producing half-maximal effect (ED50) on T cell proliferation
  EC50: ~0.03 µM
MAIDS mice [5]
  increase of T cell responses to anti-CD3 versus untreated mice: approximately 3 fold

## CS(=O)(=O)c1ccc(C2=C(c3ccccc3)C(=O)OC2)cc1 [rofecoxib]
MAIDS mice [6]
  average spleen weight: 0.8 g
  average weight of pooled lymph nodes: 0.3 g
[4]; cells from MAIDS mice 17 weeks post-infection, concentration-dependent, 1.9 to 500 nM
  increase of anti-CD3 induced proliferation: two- to three-fold
MAIDS mice [5]; MAIDS mice treated per os one week
  Rp-8-Br-cAMPS effect on anti-CD3 induced proliferation after in vivo treatment: lost
MAIDS mice [5]
  increase of T cell responses to anti-CD3 versus untreated mice: approximately two-fold

## O=C(O)c1ccccc1O [Salicyclic acid]
COX-2 [7]
  IC50: > 1000 µM
COX-1 [8]
  IC50: > 1000 µM

## COc1ccc2cc(CC(=O)O)ccc2c1 [6-MNA]
COX-2 [7]
  COX-2 selectivity COX-1/COX-2: 0.7
  IC50: 93.5 µM
COX-1 [8]
  IC50: 64 µM

## Cc1cnc(NC(=O)C2=C(O)c3ccccc3S(=O)(=O)N2C)s1 [Meloxicam, 4-hydroxy-2-methyl-N-(5-methyl-2-thiazolyl)-1,1-dioxide-2H-1,2-benzothiazine-3-carboxamide]
COX-1 [9]
  IC50: 0.00577 µM
MAIDS mice [5]; 2.8 mg/kg/day, subcutaneous osmotic pump, 14 days, p<0.05
  increase of T cell immune responses to anti-CD3 versus PBS-treated infected mice: more than 10 fold

## CS(=O)(=O)Nc1cc2c(cc1Sc1ccc(F)cc1F)C(=O)CC2 [L-745337]
COX-2 [1]; WHMA test, Warner et al.
  Ratio COX-2/WHMA-COX-1 at IC80: <0.01

## Cc1ccc(Cl)c(Nc2ccccc2C(=O)O)c1Cl [Meclofenemate]
COX-2 [7]
  COX-2 selectivity COX-1/COX-2: 0.15
  IC50: 9.7 µM
COX-1 [8]
  IC50: 1.5 µM

## CN1C(C(=O)Nc2ccccn2)=C(O)c2sccc2S1(=O)=O [Tenoxicam]
COX-1 [9]
  IC50: 0.201 µM
COX-2 [10]
  IC50: 0.322 µM

Reference: patent publication US7790738B2, “Methods of treating and preventing AIDS using of COX-2 inhibitors” (Lauras AS, priority 2000, dated 2010)
